Legend:
[1] = system: T. absoluta; settings: Pérez-Hedo et al. Biocontrol 2018; cited from earlier work
[2] = system: Encarsia formosa; settings: Pérez-Hedo et al. Biocontrol 2018; cited from earlier work
[3] = system: Bemisia tabaci; settings: Pérez-Hedo et al. Biocontrol 2018; cited from earlier work
[4] = system: SI-PI-II (marker for plant proteinase inhibitors); assay: Transcriptional response of SI-PI-II in tomato plants exposed to volatiles (laboratory); type: in vivo, Solanum lycopersicum cv. Moneymaker; settings: intact tomato plants exposed 24 h; filter paper, 1:10,000 ester:methanol; n=8
Protocol: (§1) Moneymaker tomato plants were used. Two weeks after seed germination, the seedlings were individually transplanted into pots (8×8×8 cm). The plants were kept at 25±2° C., with a constant relative humidity of 65%±5% and a 14:10 h (light:dark) photoperiod. Tomato plants that had not received any pesticide treatment at four weeks of age (about 20 cm tall) were used. All volatiles used were obtained from Sigma-Aldrich (St. Louis, Mo., USA). Each volatile was exposed by using a 2×2 cm piece of filter paper on which 10 μl of a solution containing the corresponding volatile at a concentration of 1:10,000 [(Z)-3-hexenyl ester:methanol] was impregnated as an emitting source of the corresponding volatile (Pérez-Hedo, M. et al. Biocontrol, 63: 203-213 (2018)).
(§2) To activate a plant, two pieces of filter paper impregnated with the volatile were placed at the bottom of a 30×30×30 cm plastic cage (BugDorm-1 Insect Tents; MegaView Science Co., Ltd, Taichung, Taiwan) into which the plant was introduced. A control treatment was carried out in which the two pieces of filter paper were impregnated with 10 μl of methanol. Eight repetitions per treatment were performed. The plants of the treatments were kept exposed to the volatile without disturbing for 24 hours in separate and isolated climatic chambers to avoid any interference from the volatiles and were kept at 25±2° C., 65±10% RH, and a 14:10 h (L:D) photoperiod. […]
(§3) The methodology followed for extracting and quantifying gene expression was described by Pérez-Hedo et al. Journal of Pest Science 3: 543-554 (2015). The primers used were forward primer: 5′-[…]-3′ (SEQ ID NO: 1) and reverse primer: 5′-[…]-3′ (SEQ ID NO: 2) for the quantification of PR1, forward primer: 5′-[…]-3′ (SEQ ID NO: 3) and reverse primer: 5′-[…]-3′ (SEQ ID NO: 4) for SI-PI-I, and forward primer: 5′-[…]-3′ (SEQ ID NO: 5) and reverse primer: 5′-[…]-3′ (SEQ ID NO: 6) for the SI-PI-II gene. […]

[5] = system: PR1 (marker gene for the salicylic acid signaling pathway); assay: Transcriptional response of defense gene PR1 in tomato plants exposed to volatiles (laboratory); type: in vivo, Solanum lycopersicum cv. Moneymaker; settings: intact tomato plants exposed 24 h; filter paper, 1:10,000 ester:methanol; n=8
Protocol: as §1, §2, §3

[6] = system: SI-PI-I (marker for plant proteinase inhibitors); assay: Transcriptional response of SI-PI-I in tomato plants exposed to volatiles (laboratory); type: in vivo, Solanum lycopersicum cv. Moneymaker; settings: intact tomato plants exposed 24 h; filter paper, 1:10,000 ester:methanol; n=8
Protocol: as §1, §2, §3

[7] = system: jasmonic acid pathway; settings: corn exposed to the volatile; Engelberth et al. 2004; cited from earlier work

Row | Transcriptional response of SI-PI-II compared to the control [4] | Transcriptional response of SI-PI-I compared to the control [6] | Compound | Transcriptional response of PR1 compared to the control [5] | Jasmonic acid pathway expression [7] | also measured
1 | – | – | COC(=O)c1ccccc1O [methyl salicylate] | – | – | Effect of the volatile on T. absoluta [1]: no effect; Effect of the volatile on E. formosa [2]: attractive; Effect of the volatile on B. tabaci [3]: repellent
2 | significantly overexpressed | significantly overexpressed | CC/C=C\CCOC(=O)CCC [(Z)-3-hexenyl butanoate] | significantly overexpressed | – | –
3 | – | – | CC/C=C\CC=O [(Z)-3-hexenal] | – | overexpress | –
4 | significantly overexpressed | significantly overexpressed | CC/C=C\CCOC(C)=O [(Z)-3-hexenyl acetate] | significantly overexpressed | overexpress | –
5 | – | – | CC/C=C\CCO [(Z)-3-hexen-1-ol] | – | overexpress | –
